The values that follow are results of earlier work, collected in US7108866B1, “Chronotherapeutic diltiazem formulations and the administration thereof” (Biovall Laboratories International SRL, priority 1999, dated 2006).

The conditions of this data set: at steady state.

For the molecule `COc1ccc([C@@H]2Sc3ccccc3N(CCN(C)C)C(=O)[C@@H]2OC(C)=O)cc1` [Diltiazem], the Tmax was 2 to 6 h.

The term Tmax denotes the time at which the peak concentration occurs.
